Test results from patent US10807970B2 (priority 2016, dated 2020).
Read-outs that look alike come from different tables or passages of the source.

Biological target: human σ1 receptor (Homo sapiens, UniProt Q99720)
Assay: Human σ1 receptor radioligand assay ([3H](+)-pentazocine, transfected HEK-293 membranes)
Assay type: binding
Parameters: μ and σ1 dual binding: key to the marks not given beside the values
Conditions: one class symbol for both Ki-σ1 (human σ1 receptor, A1) and Ki-μ (human μ-opioid receptor, A2)
Method: Human σ1 Receptor Radioligand Assay
To investigate binding properties of test compounds to human σ1 receptor, transfected HEK-293 membranes and [^3H](+)-pentazocine (Perkin Elmer, NET-1056), as the radioligand, were used. The assay was carried out with 7 μg of membrane suspension, 5 nM of [^3H](+)-pentazocine in either absence or presence of either buffer or 10 μM Haloperidol for total and non-specific binding, respectively. Binding buffer contained Tris-HCl 50 mM at pH 8. Plates were incubated at 37° C. for 120 minutes. After the incubation period, the reaction mix was then transferred to MultiScreen HTS, FC plates (Millipore), filtered and plates were washed 3 times with ice-cold 10 mM Tris-HCL (pH7.4). Filters were dried and counted at approximately 40% efficiency in a MicroBeta scintillation counter (Perkin-Elmer) using EcoScint liquid scintillation cocktail

[1] = read-out: μ and σ1 dual binding

Sequence of human σ1 receptor (Q99720 whole entry): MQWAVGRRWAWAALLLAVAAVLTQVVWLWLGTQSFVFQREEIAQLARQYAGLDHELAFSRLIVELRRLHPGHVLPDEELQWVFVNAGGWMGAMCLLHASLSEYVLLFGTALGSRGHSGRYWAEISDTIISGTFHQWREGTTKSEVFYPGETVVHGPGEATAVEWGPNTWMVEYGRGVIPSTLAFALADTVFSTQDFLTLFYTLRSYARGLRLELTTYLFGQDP

Compound	μ and σ1 dual binding	also measured
CCC1(N2CCN(CCOC(C)C)CC2)CCOC(C)(C)C1 (stereo not shown) [Example 39, 1-(4-ethyl-2,2-dimethyltetrahydro-2H-pyran-4-yl)-4-(2-isopropoxyethyl)piperazine]	++	–
CC(C)OCCN1CCN([C@@]2(C(=O)c3ccccn3)CCO[C@@H](C)C2)CC1 [Example 190, ((2S,4S)-4-(4-(2-isopropoxyethyl)piperazin-1-yl)-2-methyltetrahydro-2H-pyran-4-yl)(pyridin-2-yl)methanone]	++	–
CC(C)CN1CCN(C2(Cc3ccccc3)CCOC3(CCCC3)C2)CC1 (stereo not shown) [Example 123, 1-(9-benzyl-6-oxaspiro[4.5]decan-9-yl)-4-isobutylpiperazine]	++	–
CCC1(N2CCN(Cc3ccccc3)CC2)CCOC2(CCCC2)C1 (stereo not shown) [Example 29, 1-benzyl-4-(9-ethyl-6-oxaspiro[4.5]decan-9-yl)piperazine]	–	Ki (μ and σ1 dual binding): < 500 nM
CCC1(N2CCN(CCc3ccncc3F)CC2)CCOC(C)(C)C1 (stereo not shown) [Example 84, 1-(4-ethyl-2,2-dimethyltetrahydro-2H-pyran-4-yl)-4-(2-(3-fluoropyridin-4-yl)ethyl)piperazine]	++	–
CC(C)CCN1CCN([C@@]2(C)CCO[C@@H](C)C2)CC1 [Example 161, 1-((2S,4S)-2,4-dimethyltetrahydro-2H-pyran-4-yl)-4-isopentylpiperazine]	++	–
C[C@@H]1C[C@](C(=O)c2ccccn2)(N2CCN(Cc3ccccc3)CC2)CCO1 [Example 154, ((2R,4R)-4-(4-benzylpiperazin-1-yl)-2-methyltetrahydro-2H-pyran-4-yl)(pyridin-2-yl)methanone]	–	Ki [1]: < 500 nM
N#Cc1ccc(CN2CCN(C3(C4CC4)CCOCC3)CC2)cc1 [Example 191, 4-((4-(4-cyclopropyltetrahydro-2H-pyran-4-yl)piperazin-1-yl)methyl)benzonitrile]	–	Ki [1]: > 500 nM
CC(C)CN1CCC(C2(C(=O)c3ccccn3)CCOC(C)(C)C2)CC1 (stereo not shown) [Example 102, (4-(1-isobutylpiperidin-4-yl)-2,2-dimethyltetrahydro-2H-pyran-4-yl)(pyridin-2-yl)methanone]	++	–
CCC1(N2CCN(Cc3ccccc3)CC2)CCOCC1 [Example 31, 1-benzyl-4-(4-ethyltetrahydro-2H-pyran-4yl)piperazine]	++	–
COCCC1(N2CCN(CCc3ccccc3)CC2)CCOC(C)(C)C1 (stereo not shown) [Example 49, 1-(4-(2-Methoxyethyl)-2,2-dimethyltetrahydro-2H-pyran-4-yl)-4-phenethylpiperazine]	–	Ki (μ and σ1 dual binding): < 500 nM
CC1(C)CC(C(=O)c2ccccn2)(C2CCN(Cc3cccc(F)c3)CC2)CCO1 (stereo not shown) [Example 108, (4-(1-(3-fluorobenzyl)piperidin-4-yl)-2,2-dimethyltetrahydro-2H-pyran-4-yl)(pyridin-2-yl)methanone]	–	Ki (μ and σ1 dual binding): < 500 nM
CC1(C)CC(C(=O)c2ccccn2)(N2CCN(CCc3ncccc3Cl)CC2)CCO1 (stereo not shown) [Example 56, (4-(4-(2-(3-chloropyridin-2-yl)ethyl)piperazin-1-yl)-2,2-dimethyltetrahydro-2H-pyran-4-yl)(pyridin-2-yl)methanone]	–	Ki [1]: > 500 nM
N#Cc1cc(CN2CCN(C3(C(=O)c4ccccn4)CCOCC3)CC2)ccc1F [Example 188, 2-fluoro-5-((4-(4-picolinoyltetrahydro-2H-pyran-4-yl)piperazin-1-yl)methyl)benzonitrile]	–	Ki [1]: > 500 nM
CC[C@@]1(N2CCN(CCC(C)C)CC2)CCO[C@@H](C)C1 [Example 160, 1-((2S,4R)-4-ethyl-2-methyltetrahydro-2H-pyran-4-yl)-4-isopentylpiperazine]	++	–
CC(C)OCCCN1CCC(C2(C(=O)c3ccccn3)CCOC(C)(C)C2)CC1 (stereo not shown) [Example 107, (4-(1-(3-isopropoxypropyl)piperidin-4-yl)-2,2-dimethyltetrahydro-2H-pyran-4-yl)(pyridin-2-yl)methanone]	–	Ki (μ and σ1 dual binding): > 500 nM
